# Reference: EP2561858B1, “A composition for activating hair follicle stem cells to stimulate hair growth” (LABO Cosprophar AG, priority 2011, dated 2013)
# How the values were obtained:
# [1] = target: T1, 5-alpha reductase activity I (Homo sapiens, UniProt P18405); assay: 5-alpha reductase inhibition in skin fibroblasts (marked Testosterone to DHT, TLC), type I; type: cell-based; conditions: 100µM, 1 hour at 37°C preincubation, 3 hr with marked Testosterone
# T1 construct: skin fibroblasts, cells that contain different types of enzymes involved in the biosynthesis of steroids, were used; endogenous in cells; host or cells: skin fibroblasts
# T1 sequence (P18405 1-259): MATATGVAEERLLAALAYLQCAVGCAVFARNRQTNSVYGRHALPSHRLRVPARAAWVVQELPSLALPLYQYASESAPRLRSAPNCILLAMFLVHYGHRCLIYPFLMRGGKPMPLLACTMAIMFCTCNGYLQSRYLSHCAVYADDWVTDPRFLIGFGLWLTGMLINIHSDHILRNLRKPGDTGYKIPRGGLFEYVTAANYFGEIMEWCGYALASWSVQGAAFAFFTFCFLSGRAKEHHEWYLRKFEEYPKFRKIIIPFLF
# Procedure: (§1) In the experiment, skin fibroblasts, cells that contain different types of enzymes involved in the biosynthesis of steroids, were used. These cells represent a good system for the evaluation of the kinetic parameters of enzyme inhibitors such as 5-alpha reductase, delegated to steroid metabolism.
# (§2) Fibroblasts were or were not incubated with 100µM of active Biochanin-A for 1 hour at 37°C before the addition of a known quantity of marked Testosterone, at the concentration of 1.5 micromoles. After 3 hr we proceeded with the extraction of the radioactive steroids. The amount of marked Testosterone and DHT are determined by TLC (Thin Layer Chromatography) to quantify 5-alpha reductase activity.
# [2] = target: T2, 5-alpha reductase activity II (Homo sapiens, UniProt P31213); assay: 5-alpha reductase inhibition in skin fibroblasts (marked Testosterone to DHT, TLC), type II; type: cell-based; conditions: 100µM, 1 hour at 37°C preincubation, 3 hr with marked Testosterone
# T2 construct: skin fibroblasts, cells that contain different types of enzymes involved in the biosynthesis of steroids, were used; endogenous in cells; host or cells: skin fibroblasts
# T2 sequence (P31213 1-254): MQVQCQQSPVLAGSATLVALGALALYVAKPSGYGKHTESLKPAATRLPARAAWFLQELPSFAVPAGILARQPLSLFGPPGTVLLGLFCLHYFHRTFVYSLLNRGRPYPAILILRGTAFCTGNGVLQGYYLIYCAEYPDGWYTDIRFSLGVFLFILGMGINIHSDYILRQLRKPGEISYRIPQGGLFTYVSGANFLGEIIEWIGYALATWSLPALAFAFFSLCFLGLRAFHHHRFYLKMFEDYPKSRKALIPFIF
# Procedure: as §1, §2
structure (smiles),measurement,setting,value
COc1ccc(-c2coc3cc(O)cc(O)c3c2=O)cc1 [Biochanin-A],5-alpha reductase activity I compared to the negative control,[1],-64%
same,5-alpha reductase activity II compared to the negative control,[2],-93%
